Results published in patent US20040101484A1, “Nasal delivery of apomorphine in combination with glycol derivatives” (priority 1998, published 2004).

Tests used:
[1] = system: patients suffering from psychogenic erectile dysfunction; test: In-clinic efficacy and safety study of nasal apomorphine HCl, double blind double dummy placebo controlled cross over, self graded questionnaire; assay type: in vivo, human; details: nasal administration, containing propylene glycol
healthy male subjects = test: Adverse nasal effects after nasal administration of apomorphine HCl formulations to male subjects (Examples 1-6); assay type: in vivo, human
Experimental: A series of experiments were performed to illustrate features and advantages of the present invention. Several conditions were common to each experiment. […] Further, none of the subjects took any medication for two weeks prior to these experiments.
A different dosage of apomorphine was administered in each experiment to determine a preferred range of dosages having minimal adverse effects.

[2] = system: patients suffering from erectile dysfunction; details: intranasal delivery, 2.5 mg to 3.5 mg; cited from earlier work
[3] = 0.5 mg, without glycol derivatives, three subjects
[4] = 2.0 mg, without glycol derivatives, nine subjects

For `CN1CCc2cccc3c2[C@H]1Cc1ccc(O)c(O)c1-3` [apomorphine], the “Induction of an erection (overall conclusion)” value [1] was “effective in inducing an erection”, the “Induction of an erection compared with nasal placebo or Viagra” value ([1]; listed as apomorphine HCI) was “more effective than a nasal placebo or Viagra in inducing an erection” and the “Induction of an erection compared with nasal placebo or Viagra” value ([1]; listed as apomorphine HCl) was “more effective than nasal placebo or Viagra in inducing an erection”. For the same compound, the “Adverse nasal effects (overall conclusion)” value (“Adverse nasal effects” for short) (healthy male subjects; 0.5 mg, does not contain glycol derivatives) was “some adverse nasal effects”, the “Number of subjects who did not suffer any symptoms” value (healthy male subjects; [3]) was “One” and the “Number of subjects who suffered from mild nasal burning or pain” value (healthy male subjects; [3]) was “two”. For the same compound, the “Adverse nasal effects” value (healthy male subjects; 1.0 mg dose, does not contain glycol derivatives) was “some adverse nasal effects”, the “Adverse nasal effects” value (healthy male subjects; 1.0 mg, composition with propylene glycol (Table 5), six subjects) was “none of the subjects suffered from adverse nasal effects” and the “Adverse nasal effects” value (healthy male subjects; 2.0 mg, composition with propylene glycol (Table 6), six subjects) was “none of the subjects suffered from adverse nasal effects”. The “Adverse nasal effects” value (healthy male subjects; 2.0 mg, without glycol derivatives) was “some adverse nasal effects”, the “Number of subjects who suffered from mild nasal burning” value (healthy male subjects; [4]) was “One” and the “Number of subjects who suffered from mild to moderate nasal burning” value (healthy male subjects; [4]) was “one”. The “Number of subjects who suffered from mild unusual taste” value (healthy male subjects; [4]) was “four”, the “Adverse nasal effects” value (healthy male subjects; 4.0 mg, does not contain glycol derivatives) was “some adverse nasal effects” and the “Number of subjects who experienced moderate sneezing, somewhat troublesome” value (healthy male subjects; 4.0 mg, does not contain glycol derivatives, two subjects) was “One”. For the same compound, the Eliciting an erection [2] was “effective for eliciting an erection” and the “Side effects suffered by study participants” value [2] was “extensive and serious side effects including hypotension, nausea, vomiting, impaired vision, diaphoresis and ashen coloring”.
